Consider 15 compounds from PubChem BioAssay (NCI).

The structures appear in SMILES notation.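 All cell lines were grown in 96-well plates and treated with compound for 48 hours. Abbreviation: GI50, concentration required for 50% inhibition of growth. TGI: total growth inhibition.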

Among the test systems are A498 renal; A549 NSCLC; BT-549 breast; COLO 205 colon; MDA-MB-435; OVCAR-3 ovarian; SW-620 colon; U251 CNS; K-562 leukemia; MCF7 breast.
What all share (assay): inhibition of tumour cell growth, NCI panel, 48 h

Take `Cc1cc(NCCCCCCCNc2cc(C)nc3cc([N+](=O)[O-])ccc23)c2ccc([N+](=O)[O-])cc2n1`: the TGI with A498 renal was 30.4 µM; with A549 NSCLC, 9.41 µM; in the assay with BT-549 breast, 67.3 µM; in the assay with COLO 205 colon, 27 µM; in the assay with MDA-MB-435 it was 39 µM; in the assay on OVCAR-3 ovarian, 25 µM. Besides, the TGI in the assay with SW-620 colon was 4.61 µM; in the assay on U251 CNS, 27.4 µM.
Take `Cc1ccc(N=Nc2c(O)c(C(=O)Nc3ccccc3)cc3ccccc23)c([N+](=O)[O-])c1`: the TGI with A498 renal, with A549 NSCLC, with BT-549 breast, with COLO 205 colon, in the assay with K-562 leukemia and in the assay on MDA-MB-435 was more than 100 µM each time. The TGI in the assay with OVCAR-3 ovarian, in the assay with SW-620 colon and in the assay with U251 CNS was more than 100 µM throughout.
For the compound `CCN(CC)CCNCc1cc(Cl)cc2c1OCOC2`, the TGI with A498 renal, in the assay with A549 NSCLC, in the assay with COLO 205 colon, with K-562 leukemia, in the assay with MCF7 breast and in the assay on MDA-MB-435 was more than 10 µM throughout. Besides, the TGI with OVCAR-3 ovarian, in the assay with SW-620 colon and with U251 CNS was more than 10 µM each time.
On to `COc1cc2c(cc1OC)C1(c3ccc(Cl)cc3)ON=C(c3ccccc3)N1CS2` (centres undefined), for which the TGI in the assay on A498 renal, in the assay on A549 NSCLC, with COLO 205 colon, in the assay with K-562 leukemia, in the assay on OVCAR-3 ovarian and in the assay with SW-620 colon was more than 100 µM throughout. Further, the TGI with U251 CNS was more than 100 µM.
With `CN(CCCNC(=O)c1nn(-c2ccc(Cl)cc2Cl)c2c1Cc1ccccc1-2)CCCNC(=O)c1nn(-c2ccc(Cl)cc2Cl)c2c1Cc1ccccc1-2`, the TGI was determined as 3.13 µM in the assay with A498 renal; 3.64 µM in the assay on A549 NSCLC; 3.18 µM with BT-549 breast; 3.26 µM in the assay with COLO 205 colon; 2.97 µM in the assay with K-562 leukemia; 2.57 µM with MDA-MB-435. Further, the TGI in the assay on OVCAR-3 ovarian worked out at 3.09 µM; with SW-620 colon it was 3.06 µM; in the assay with U251 CNS, 3.1 µM.
Consider `CNc1ccc(N)cc1C(=O)N1CCC[C@H]1CO`, for which the TGI in the assay on A498 renal, with A549 NSCLC, with BT-549 breast, with COLO 205 colon, with MCF7 breast and in the assay with MDA-MB-435 was more than 100 µM in each case. Moreover, the TGI with SW-620 colon and in the assay on U251 CNS was more than 100 µM throughout.
In the case of `O[C@H]1[C@H](O)[C@@H](O)[C@@]2(O)C[C@@H](O)[C@@H]1N2`, the TGI with A498 renal, with A549 NSCLC, in the assay with COLO 205 colon, in the assay on K-562 leukemia, with MCF7 breast and in the assay with MDA-MB-435 was more than 100 µM each time. The TGI in the assay on OVCAR-3 ovarian, in the assay on SW-620 colon and in the assay with U251 CNS was more than 100 µM in each case.
As to `CCNC1=C(NC(=O)CC)C(=O)c2ccccc2C1=O`, the TGI in the assay on A549 NSCLC, in the assay on BT-549 breast, with COLO 205 colon, in the assay with K-562 leukemia, in the assay with MCF7 breast and in the assay with OVCAR-3 ovarian was more than 100 µM in each case. Also, the TGI in the assay on SW-620 colon and in the assay with U251 CNS was more than 100 µM in each case.
Take `O=C(N/N=C/c1cc(Cl)cc(Cl)c1O)c1ccccc1O`: the TGI was 40.6 µM in the assay on A498 renal; 15.8 µM with A549 NSCLC; more than 100 µM with COLO 205 colon; more than 100 µM in the assay on K-562 leukemia; 1.65 µM in the assay with OVCAR-3 ovarian; 21.5 µM in the assay with SW-620 colon. Further, the TGI in the assay with U251 CNS is 18.4 µM. In addition, the GI50 with A549 NSCLC is 1.45 µM; with COLO 205 colon, 11.2 µM.
Regarding `COC12c3ccccc3-c3ccccc3C1[C@H]1C(=O)OC(=O)[C@H]12` (some centres undefined), the TGI with A498 renal, in the assay on COLO 205 colon, in the assay with K-562 leukemia, in the assay with MCF7 breast, in the assay on MDA-MB-435 and in the assay on OVCAR-3 ovarian was more than 10 µM in each case. Also, the TGI in the assay on SW-620 colon and in the assay with U251 CNS was more than 10 µM in each case.
Consider `CC(NC(C)(C)C)C(=O)c1cccc(Cl)c1` (centres undefined), for which the TGI with A498 renal, in the assay with A549 NSCLC, with COLO 205 colon, with K-562 leukemia, in the assay with OVCAR-3 ovarian and in the assay on SW-620 colon was more than 100 µM in each case. The compound also had a TGI in the assay on U251 CNS of more than 100 µM.
With `O=C(Cc1ccccc1)NN1C(=O)C(Cl)C1c1ccccc1O` (centres undefined), the TGI in the assay on A549 NSCLC, with COLO 205 colon, in the assay with K-562 leukemia, in the assay with OVCAR-3 ovarian, with SW-620 colon and in the assay with U251 CNS was more than 100 µM in each case.
Take `CCN(c1cccc(NC(=S)Nc2ccccc2N(CC)c2cc(-c3ccccc3)no2)c1)c1cc(-c2ccccc2)no1`: the TGI in the assay with A549 NSCLC, in the assay on BT-549 breast, in the assay on COLO 205 colon, in the assay on K-562 leukemia, in the assay on MCF7 breast and in the assay on MDA-MB-435 was more than 100 µM each time. In addition, the TGI in the assay on OVCAR-3 ovarian, in the assay on SW-620 colon and in the assay on U251 CNS was more than 100 µM throughout.
In the case of `CCOC(=O)CSc1nnc(C(Sc2nc(-c3ccccc3)c(-c3ccccc3)[nH]2)C(C)C)n1-c1ccccc1` (centres undefined), the TGI is more than 10 µM with A498 renal; more than 31.6 µM in the assay on A549 NSCLC; 52.9 µM with BT-549 breast; 28.6 µM in the assay with COLO 205 colon; more than 100 µM in the assay with K-562 leukemia; more than 100 µM in the assay on MCF7 breast. The TGI in the assay with OVCAR-3 ovarian was more than 10 µM; in the assay on SW-620 colon it was more than 31.6 µM; in the assay on U251 CNS, more than 10 µM.
Take `CC(C)=C/C=C1/CS(=O)(=O)C=C1C`: the TGI in the assay on A498 renal, in the assay with A549 NSCLC, in the assay on COLO 205 colon, in the assay on K-562 leukemia, in the assay on MCF7 breast and in the assay on MDA-MB-435 was more than 100 µM throughout. The TGI with OVCAR-3 ovarian, in the assay with SW-620 colon and in the assay with U251 CNS was more than 100 µM in each case.
